From paper PMC10092101 (Chemmedchem, 2022)
One block for each molecule: values may come before it.

How the values were obtained:
CCRL2 = conditions: cited from earlier work
CMKLR1 [1] = conditions: ref [13], [22]; cited from earlier work
GPR1 = conditions: ref [13], [22]; cited from earlier work
Nluc‐CMKLR1‐eYFP = molecular target: T1, Nluc‐CMKLR1‐eYFP (human, UniProt Q99788-2 1-371); test: FRET or BRET
T1 sequence: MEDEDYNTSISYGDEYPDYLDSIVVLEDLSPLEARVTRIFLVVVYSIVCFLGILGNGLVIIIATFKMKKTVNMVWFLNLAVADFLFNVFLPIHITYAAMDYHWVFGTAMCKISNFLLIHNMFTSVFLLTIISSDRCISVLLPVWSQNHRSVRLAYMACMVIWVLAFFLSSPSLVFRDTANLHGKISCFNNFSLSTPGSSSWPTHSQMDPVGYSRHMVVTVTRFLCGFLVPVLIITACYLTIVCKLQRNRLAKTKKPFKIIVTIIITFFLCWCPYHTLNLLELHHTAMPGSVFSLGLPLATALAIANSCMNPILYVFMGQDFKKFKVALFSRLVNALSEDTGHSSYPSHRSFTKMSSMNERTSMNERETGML

Nluc‐GPR1‐eYFP = molecular target: T2, Nluc‐GPR1‐eYFP (human, UniProt P46091 1-355); test: FRET or BRET
T2 sequence: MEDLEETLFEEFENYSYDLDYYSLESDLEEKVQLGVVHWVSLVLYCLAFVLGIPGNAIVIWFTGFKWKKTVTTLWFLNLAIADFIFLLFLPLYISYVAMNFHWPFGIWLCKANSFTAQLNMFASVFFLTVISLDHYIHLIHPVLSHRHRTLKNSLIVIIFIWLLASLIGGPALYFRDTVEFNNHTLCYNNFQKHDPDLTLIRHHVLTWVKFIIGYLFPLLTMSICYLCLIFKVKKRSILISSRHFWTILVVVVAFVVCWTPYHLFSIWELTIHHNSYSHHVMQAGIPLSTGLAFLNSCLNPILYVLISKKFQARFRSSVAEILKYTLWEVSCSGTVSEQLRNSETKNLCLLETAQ

CMKLR1 [2] = molecular target: T3, CMKLR1 (Homo sapiens, UniProt Q99788); test: IP-One assay; type: cell-based; conditions: [K^141(TAMRA)]ChemS157 vs ChemS157, COS-7 cells
T3 sequence (Q99788 1-371 isoform Q99788-2): T1 sequence

Nluc‐GPR1 = molecular target: T4, Nluc‐GPR1 (Homo sapiens, UniProt P46091); test: NanoBRET saturation binding at Nluc-GPR1; conditions: Nluc-GPR1 vs Nluc-CMKLR1
T4 sequence (P46091 1-355): T2 sequence

Molecule: chemerin: 16 kDa protein expressed in liver, skin, lung or white adipose tissue; adipokine
cellular response at CCRL2 (CCRL2; described to bind chemerin, no reference printed directly): leads to no cellular response

Molecule: ChemS157: most active chemerin form truncated at position S157, 137 amino acids; full‐length protein by recombinant expression
binding affinity (CMKLR1 [1]): high affinity | binding affinity (GPR1): high affinity | binding affinity (CCRL2; ref [13], [22]): high affinity

EC50 (Nluc‐CMKLR1‐eYFP): 75.9 nM | EC50 (Nluc‐GPR1‐eYFP): 112 nM
B1: [K^141(TAMRA)]ChemS157 (ligand)
chain: ELTEAQRRGLQVALEEFHKHPPVQWAFQETSVESAVDTPFPAGIFVRLEFKLQQTSCRKRDWKKPECKVRPNGRKRKCLACIKLGSEDKVLGRLVHCPIETQVLREAEEHQETQCLRVQRKGEDPHSFYFPGQFAFS
modifications: TAMRA on the side chain of lysine 141

EC50 fold higher than ChemS157 without the TAMRA label (CMKLR1 [2]): 2.5 fold | shift of EC50 between Nluc-CMKLR1 and Nluc-GPR1 (Nluc‐GPR1): 1.5 fold
B2: [K^141(TAMRA)]ChemS157: TAMRA‐labeled full-length ChemS157, lysine 141 labeled, semi‐synthetic by native chemical ligation (protein)
chain: B1 chain
modifications: TAMRA on the side chain of lysine 141; left off: [His]10-[…], N-terminal, kept
